Reference: patent publication US20150177228A1, “DEVICE AND METHOD FOR SCREENING FOR BIOACTIVE MATERIALS USING VISUAL RECOGNITION OF ANIMALS” (GENOMIC DESIGN BIOENGINEERING COMPANY, priority 2012, published 2015)

Tested on: zebrafish 4 days post fertilization
Assay: Zebrafish colour preference (visual perception response) test in water tank with blue and yellow passage portions
Conditions: as the alcohol concentration of the medium increased (0%, 0.5%, 1%, 2%); 10 zebrafish, 30-minute intervals, FIG. 5
From the text: 5) The image stored in each of the first to fifth image files was read at 2-minute intervals to count the number of zebrafish in the first passage portion 112 fitted with the first fitting body 120 (preferred color) or the second passage portion 113 fitted with the second fitting body 130 (dislike color).

CCO [alcohol]
visual perception response of the zebrafish (distribution between first passage portion, preferred color, and second passage portion, dislike color): scattered in both the first passage portion 112 and the second passage portion 113
